Biological target: T1, human cloned 5-HT6 receptors (Homo sapiens, UniProt P50406)
T1 construct: expressed in transfected cells; host or cells: HeLa cells (membrane preparation)
Assay: 5-HT6 binding affinity, [3H]-LSD displacement
Conditions: membranes of Hela cells expressing human cloned 5-HT6 receptors; [3H]-LSD 3.0 nM; 120 min, room temperature

T1 sequence (P50406 whole entry): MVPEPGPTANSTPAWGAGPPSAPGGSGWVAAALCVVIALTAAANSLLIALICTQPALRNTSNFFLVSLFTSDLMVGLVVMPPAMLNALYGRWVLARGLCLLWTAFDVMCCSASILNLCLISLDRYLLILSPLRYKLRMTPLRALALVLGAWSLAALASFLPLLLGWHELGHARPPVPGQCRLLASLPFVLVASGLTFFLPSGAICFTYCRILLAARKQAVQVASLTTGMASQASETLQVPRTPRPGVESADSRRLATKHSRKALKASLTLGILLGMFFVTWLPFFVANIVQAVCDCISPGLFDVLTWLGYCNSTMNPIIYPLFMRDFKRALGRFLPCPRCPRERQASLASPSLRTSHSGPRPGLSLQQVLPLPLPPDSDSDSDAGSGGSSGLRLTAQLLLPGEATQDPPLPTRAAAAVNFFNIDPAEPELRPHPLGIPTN

Ki: 248 nM
SMILES: O=C(O)Cc1cn(S(=O)(=O)c2c(Cl)nc3sccn23)c2ccccc12 [Example 2, {1-[(6-Chloroimidazo[2,1-b][1,3]thiazol-5-yl)sulfonyl]-1H-indol-3-yl}acetic acid]
